Values after ≈ are worked out from the molar mass of the structure shown.
Tests used:
C. albicans = experiment: Minimum inhibiting concentration towards unicellular fungi, serial dilution; format: cell-based; settings: Sabouraud's agar
Method: (§1) Discovering the Minimum Inhibiting Concentration of the Inventive Substance (Forms A and B) Towards Unicellular Fungi
(§2) Fungi were grown in Sabouraud's agar. The effect of the substance was assessed by means of the serial dilution method.

C. glabrata = experiment: as above; format: cell-based; settings: Sabouraud's agar
Method: as §1, §2

C. krusei = experiment: as above; format: cell-based; settings: Sabouraud's agar
Method: as §1, §2

C. parapsilosis = experiment: as above; format: cell-based; settings: Sabouraud's agar
Method: as §1, §2

S. cerevisiae = experiment: as above; format: cell-based; settings: Sabouraud's agar
Method: as §1, §2

Aspergillus = experiment: Minimum inhibiting concentration towards multicellular fungi; format: cell-based
Excerpt: (§3) Discovering the Minimum Inhibiting Concentration of the Inventive Agent Towards Multicellular Fungi

Mucor = experiment: as above; format: cell-based
Excerpt: as §3

A. alternata = experiment: Biocidal effect on spores of fungi that cause plant diseases and damage agricultural products; format: cell-based, Alternaria alternata; settings: fungi spores (a mixture)
Method: (§4) Various fungi were used in the experiment—vegetative forms and spores of Alternaria alternata, Fusarium moniliforme, Botrytis spp. that cause diseases of plants and damage agricultural products. Biocidal properties were tested on spores of fungi cultures with optical density of the inoculated dose p E=0.310.

F. moniliforme = experiment: as above; format: cell-based, Fusarium moniliforme; settings: fungi spores (a mixture)
Method: as §4

Botrytis spp = experiment: as above; format: cell-based; settings: fungi spores (a mixture)
Method: as §4

Aspergillis niger = experiment: Biocidal effect on spores of fungi that damage paper, wood and dyes; format: cell-based; settings: fungi spores (a mixture)
Method: (§5) Various fungi were used in the experiment—vegetative forms and spores of Aspergillis niger, Penicillium ochro-chloron that damage paper, wood and dyes thereof.
(§6) Biocidal properties were tested on spores of fungi cultures with optical density of the inoculated dose p E=0.310.

[1] = test system: Penicillium ochro-chloron; experiment: as above; format: cell-based; settings: fungi spores (a mixture)
Method: as §5, §6

[2] = test system: Candida albicans strain 15; experiment: Assessment of the fungicide effect, serial dilutions in microplates with neutralizer; format: cell-based; settings: for Concentration that destroys the fungi (fungicide effect): Candida genus, exposure time 24 h
Method: (§7) Strains of fungi of Candida genus (Candida albicans strain 15) that are resistant towards disinfecting agents and trichophyton (Trichophiton gypseum), which were cultivated in Sabouraud's agar, were used as test microorganisms.
(§8) Forms A and B were dissolved in sterile distilled water.
(§9) The method of serial dilutions in microplates was used in the experiment. The dissolved substance was titrated in the culture medium, then the test microorganisms were introduced and after certain intervals of disinfection time the neutralizer was added, namely 0.1% solution of citric acid. After the exposure during 1-2 minutes the contents of each well were plated to solid culture media.
(§10) The following concentrations of the substance were studied: 0.1-0.05-0.025-0.0125% of the drug for action duration of 1, 3, 5, 10, 20, minutes and 1.0-1.5-3.0 and 24 h.
(§11) All inoculations were incubated at an optimum temperature during 24 hours.
(§12) The fungicide effect was assessed according to the presence or absence of growing microorganisms in the culture media.

Trichophiton gypseum = experiment: as above; format: cell-based; settings: for Concentration that destroys the fungi (fungicide effect): trichophyton genus, exposure time 24 h
Method: as §7, §8, §9, §10, §11, §12

[3] = read-out: Minimum inhibiting (biocidal) concentration (MIC) of the substance

`OC(Cn1cncn1)(Cn1cncn1)c1ccc(F)cc1F` [Fluconazole, 2-(2,4-difluorophenyl)-1,3-bis(1N-1,2,4-triazol-1-yl)-2-propanol, reference compound] gave an MIC (C. albicans; Candida albicans) of 2 µg/mL (≈ 6.53 µM), an MIC (C. glabrata; Nakaseomyces glabratus) of 64 µg/mL (≈ 209 µM) and an MIC (C. krusei; Pichia kudriavzevii) of 32 µg/mL (≈ 104 µM). The MIC (C. parapsilosis; Lodderomyces parapsilosis) was 0.25 µg/mL (≈ 0.816 µM), the MIC (S. cerevisiae; Saccharomyces cerevisiae) was 0.125 µg/mL (≈ 0.408 µM) and the MIC (Aspergillus) was 64 µg/mL (≈ 209 µM). For the same compound, the MIC (Mucor) was 64 µg/mL (≈ 209 µM), the “Minimum inhibiting (biocidal) concentration of the substance” value (A. alternata) was 32 µg/mL and the “Minimum inhibiting (biocidal) concentration of the substance” value (F. moniliforme) was 64 µg/mL. For the same compound, the “Minimum inhibiting (biocidal) concentration of the substance” value (Botrytis spp) was 64 µg/mL, the MIC (Aspergillis niger; [3]) was 64 µg/mL (≈ 209 µM) and the MIC [1, 3] was 64 µg/mL (≈ 209 µM). For the same compound, the “Fungicide effect (presence or absence of growth)” value ([2]; Candida, same conditions as the inventive substance) was “did not destroy the microbes” and the “Fungicide effect (presence or absence of growth)” value (Trichophiton gypseum; trichophyton, same conditions as the inventive substance) was “did not destroy the microbes”.
Compound “Dimer of sodium salt of 2,4-dioxo-5-(2-hydroxy-3,5-dichlorobenzylidiene)amino-1,3-pyrimidine” has a Minimum inhibiting concentration (C. albicans) of 1 µg/mL, a Minimum inhibiting concentration (C. glabrata) of 0.250 µg/mL and a Minimum inhibiting concentration (C. krusei) of 1 µg/mL. The Minimum inhibiting concentration (C. parapsilosis) was 0.125 µg/mL, the Minimum inhibiting concentration (S. cerevisiae) was 0.125 µg/mL and the “Minimum inhibiting concentration (MIC)” value (Aspergillus) was 2 µg/mL. The “Minimum inhibiting concentration (MIC)” value (Mucor) was 1 µg/mL, the “Minimum inhibiting (biocidal) concentration of the substance” value (A. alternata) was 2.0 µg/mL and the “Minimum inhibiting (biocidal) concentration of the substance” value (F. moniliforme) was 4.0 µg/mL. The “Minimum inhibiting (biocidal) concentration of the substance” value (Botrytis spp) was 4.0 µg/mL, the “Minimum inhibiting (biocidal) concentration (MIC) of the substance” value (“Minimum inhibiting … (MIC) of the substance” for short) (Aspergillis niger) was 1.0 µg/mL and the “Minimum inhibiting … (MIC) of the substance” value [1] was 4.0 µg/mL. The “Concentration that destroys the fungi (fungicide effect)” value (from here on “Concentration that destroys the fungi”) [2] was 0.025% and the “Concentration that destroys the fungi” value (Trichophiton gypseum) was 0.1%.
In the case of “2,4-dioxo-5-(2-hydroxy-3,5-dichlorobenzylidiene)amino-1,3-pyrimidine salt”, the Minimum inhibiting concentration (C. albicans) is reported as 1 µg/mL, the Minimum inhibiting concentration (C. glabrata) is reported as 0.125 µg/mL and the Minimum inhibiting concentration (C. krusei) is reported as 1 µg/mL. For the same compound, the Minimum inhibiting concentration (C. parapsilosis) was 0.250 µg/mL, the Minimum inhibiting concentration (S. cerevisiae) was 0.125 µg/mL and the “Minimum inhibiting concentration (MIC)” value (Aspergillus) was 2 µg/mL. For the same compound, the “Minimum inhibiting concentration (MIC)” value (Mucor) was 1 µg/mL, the “Minimum inhibiting (biocidal) concentration of the substance” value (A. alternata) was 4.0 µg/mL and the “Minimum inhibiting (biocidal) concentration of the substance” value (F. moniliforme) was 8.0 µg/mL. The “Minimum inhibiting (biocidal) concentration of the substance” value (Botrytis spp) was 8.0 µg/mL, the “Minimum inhibiting … (MIC) of the substance” value (Aspergillis niger) was 2.0 µg/mL and the “Minimum inhibiting … (MIC) of the substance” value [1] was 8.0 µg/mL. For the same compound, the “Concentration that destroys the fungi” value [2] was 0.025% and the “Concentration that destroys the fungi” value (Trichophiton gypseum) was 0.1%.

— patent publication US8987277B2, “Fungicide” (priority 2010, dated 2015)
